Measurements from patent publication US8148373B2, “Compounds” (AstraZeneca AB, priority 2008, dated 2012).

Key:
[1] = molecular target: T1, human muscarinic acetylcholine M3 receptor (M3-ACh) (Homo sapiens, UniProt P20309); experiment: Muscarinic 3 Receptor Binding Assay ([3H]NMS competition, SPA); conditions: [3H]NMS 0.1 nM, CHO-K1 cell membranes, 16 hours at room temperature; read-out: M3 pIC50 (converted)
T1 construct: expressed in transfected cells; host or cells: CHO-K1 (Chinese Hamster Ovary) cell membranes
T1 sequence (P20309 whole entry): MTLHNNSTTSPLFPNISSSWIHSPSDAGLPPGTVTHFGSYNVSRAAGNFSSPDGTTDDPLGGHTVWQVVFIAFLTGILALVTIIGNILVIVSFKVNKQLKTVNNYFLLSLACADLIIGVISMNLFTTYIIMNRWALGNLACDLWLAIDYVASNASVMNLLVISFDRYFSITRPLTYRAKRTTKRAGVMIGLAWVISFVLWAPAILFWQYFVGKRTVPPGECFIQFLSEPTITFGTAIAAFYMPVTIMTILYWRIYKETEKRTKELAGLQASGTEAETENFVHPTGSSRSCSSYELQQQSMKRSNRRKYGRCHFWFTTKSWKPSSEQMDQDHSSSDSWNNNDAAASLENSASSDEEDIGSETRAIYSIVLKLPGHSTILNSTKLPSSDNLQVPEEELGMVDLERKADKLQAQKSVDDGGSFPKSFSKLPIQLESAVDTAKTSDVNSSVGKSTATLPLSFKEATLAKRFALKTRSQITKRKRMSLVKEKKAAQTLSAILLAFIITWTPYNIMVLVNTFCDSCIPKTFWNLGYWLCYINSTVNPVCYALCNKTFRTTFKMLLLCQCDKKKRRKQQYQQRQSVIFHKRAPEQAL
Method in brief: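 Competition SPA binding of 0.1 nM [3H]NMS (quarter Kd) to membranes from CHO-K1 cells expressing human M3, in 20 mM HEPES pH 7.4, 5 mM MgCl2, 1% DMSO. Incubated 16 h at room temperature; non-specific binding with 1 µM atropine. pIC50 from 50% reduction of specific binding.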

[2] = molecular target: T2, Adrenergic β2 (H292 cells) (Homo sapiens, UniProt P07550); experiment: Assay for Adrenergic β2 Mediated cAMP Production (concentration response, AlphaScreen cAMP detection); assay type: cell-based; conditions: for EC50: cAMP production, 60 minutes at room temperature, 300 μM rolipram, read-out: β2 pEC50 (converted); for β2 Intrinsic activity: fraction relative to the maximum activity determined for formoterol
T2 construct: endogenous in cells; host or cells: H292 cells
T2 sequence (P07550 whole entry): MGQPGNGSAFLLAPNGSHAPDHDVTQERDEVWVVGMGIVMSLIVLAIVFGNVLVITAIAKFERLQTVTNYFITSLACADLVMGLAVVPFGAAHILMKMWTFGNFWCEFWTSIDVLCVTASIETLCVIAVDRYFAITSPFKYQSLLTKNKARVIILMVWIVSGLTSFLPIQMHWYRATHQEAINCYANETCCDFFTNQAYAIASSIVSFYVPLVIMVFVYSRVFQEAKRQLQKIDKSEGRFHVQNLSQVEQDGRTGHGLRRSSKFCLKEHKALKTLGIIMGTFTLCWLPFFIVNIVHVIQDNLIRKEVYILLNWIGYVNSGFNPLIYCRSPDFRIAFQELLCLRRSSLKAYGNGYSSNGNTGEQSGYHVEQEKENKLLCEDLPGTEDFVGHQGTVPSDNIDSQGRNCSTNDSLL
Method in brief: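 Intrinsic activity is relative to the per-experiment formoterol maximum, with pEC50 from a four-parameter logistic fit of cAMP levels quantified by AlphaScreen against standards. Cells (H292) got 300 μM rolipram for 10 min, then compound for 60 min at room temperature, 1% DMSO final.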

[3] = molecular target: T2, Adrenergic β2 (H292 cells); experiment: Adrenergic β2 Mediated cAMP Production, single concentration 1 μM; assay type: cell-based; conditions: NCI-H292, 1 μM compound, percentage of the maximum response generated by 1E-07M formoterol, read-out: β2 (% effect at 1 μM)
Method in brief: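 cAMP was quantified by AlphaScreen in lysates of H292 cells and reported as a percentage of the 1E-07M formoterol maximum. Before lysis the cells, seeded the previous day, received rolipram (300 μM final) and then test compound at a final 1 μM in 1% DMSO for 60 min at room temperature.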

[4] = molecular target: T1, human muscarinic acetylcholine M3 receptor (M3-ACh); experiment: Muscarinic 3 Receptor Binding Assay, % inhibition specific binding at 1 μM; conditions: 1 μM compound, % inhibition specific [3H]-NMS binding
Method in brief: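 Value is % inhibition of specific [3H]N-methyl scopolamine binding (0.1 nM, quarter Kd) by 1 μM compound, using SPA beads precoated with human M3-expressing CHO-K1 membranes. Buffer HEPES pH 7.4 with MgCl2 and 1% DMSO; 16 h at room temperature; 1 μM atropine sets non-specific binding.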

IC50 [1] [nM]	EC50 [2] [nM]	β2 Intrinsic activity [2]	activation at 1 µM [3] [%]	inhibition at 1 µM [4] [%]	Compound
0.631	25.1	0.8	109	100	O=C(c1csc(C2CCC2)n1)N1CCOC2(CCN(CCCCCCCCCNC[C@H](O)c3ccc(O)c4[nH]c(=O)sc34)CC2)C1 [Example 220, (R)-7-(2-(9-(4-(2-cyclobutylthiazole-4-carbonyl)-1-oxa-4,9-diazaspiro[5.5]undecan-9-yl)nonylamino)-1-hydroxyethyl)-4-hydroxybenzo[d]thiazol-2(3H)-one]
25.1	7.94	0.9	113	92	O=C(c1ccc2c(c1)CCO2)N1CCOC2(CCN(Cc3cc(F)cc(CCNC[C@H](O)c4ccc(O)c5[nH]c(=O)sc45)c3)CC2)C1 [Example 149, (R)-7-(2-(3-((4-(2,3-dihydrobenzofuran-5-carbonyl)-1-oxa-4,9-diazaspiro[5.5]undecan-9-yl)methyl)-5-fluorophenethylamino)-1-hydroxyethyl)-4-hydroxybenzo[d]thiazol-2(3H)-one]
2	25.1	0.9	84	99	O=C(c1ccc2occc2c1)N1CCOC2(CCN(CCCCCCCCCNC[C@H](O)c3ccc(O)c4[nH]c(=O)sc34)CC2)C1 [Example 209, (R)-7-(2-(9-(4-(benzofuran-5-carbonyl)-1-oxa-4,9-diazaspiro[5.5]undecan-9-yl)nonylamino)-1-hydroxyethyl)-4-hydroxybenzo[d]thiazol-2(3H)-one]
0.398	25.1	0.9	95	100	O=C(c1csc(C2CC2)n1)N1CCOC2(CCN(CCCCCCCCCNC[C@H](O)c3ccc(O)c4[nH]c(=O)sc34)CC2)C1 [Example 218, (R)-7-(2-(9-(4-(2-cyclopropylthiazole-4-carbonyl)-1-oxa-4,9-diazaspiro[5.5]undecan-9-yl)nonylamino)-1-hydroxyethyl)-4-hydroxybenzo[d]thiazol-2(3H)-one]
20	6.31	1	101	95	Cc1ccc(C(=O)N2CCOC3(CCN(Cc4cc(F)cc(CCNC[C@H](O)c5ccc(O)c6[nH]c(=O)sc56)c4)CC3)C2)s1 [Example 118, (R)-7-(2-(3-fluoro-5-((4-(5-methylthiophene-2-carbonyl)-1-oxa-4,9-diazaspiro[5.5]undecan-9-yl)methyl)phenethylamino)-1-hydroxyethyl)-4-hydroxybenzo[d]thiazol-2(3H)-one]
0.631	39.8	0.9	103	100	O=C(c1csc(C(F)(F)F)n1)N1CCOC2(CCN(CCCCCCCCCNC[C@H](O)c3ccc(O)c4[nH]c(=O)sc34)CC2)C1 [Example 217, (R)-4-hydroxy-7-(1-hydroxy-2-(9-(4-(2-(trifluoromethyl)thiazole-4-carbonyl)-1-oxa-4,9-diazaspiro[5.5]undecan-9-yl)nonylamino)ethyl)benzo[d]thiazol-2(3H)-one]
5.01	200	0.9	68	99	O=C(c1csc(C2CC2)n1)N1CCOC2(CCN(CCOc3ccc(CNC[C@H](O)c4ccc(O)c5[nH]c(=O)sc45)cc3)CC2)C1 [Example 259, (R)-7-(2-(4-(2-(4-(2-cyclopropylthiazole-4-carbonyl)-1-oxa-4,9-diazaspiro[5.5]undecan-9-yl)ethoxy)benzylamino)-1-hydroxyethyl)-4-hydroxy-benzo[d]thiazol-2(3H)-one]
1.26	31.6	0.9	93	99	O=C(c1csc(C2CCCC2)n1)N1CCOC2(CCN(CCCCCCCCCNC[C@H](O)c3ccc(O)c4[nH]c(=O)sc34)CC2)C1 [Example 221, (R)-7-(2-(9-(4-(2-cyclopentylthiazole-4-carbonyl)-1-oxa-4,9-diazaspiro[5.5]undecan-9-yl)nonylamino)-1-hydroxyethyl)-4-hydroxybenzo[d]thiazol-2(3H)-one]
7.94	2.51	0.8	93	99	O=C(c1ccc2occc2c1)N1CCOC2(CCN(Cc3cc(F)cc(CCNC[C@H](O)c4ccc(O)c5[nH]c(=O)sc45)c3)CC2)C1 [Example 173, (R)-7-(2-(3-((4-(benzofuran-5-carbonyl)-1-oxa-4,9-diazaspiro[5.5]undecan-9-yl)methyl)-5-fluorophenethylamino)-1-hydroxyethyl)-4-hydroxybenzo[d]thiazol-2(3H)-one]
31.6	5.01	0.8	94	89	O=C(c1ccc2cccnc2c1)N1CCOC2(CCN(Cc3cc(F)cc(CCNC[C@H](O)c4ccc(O)c5[nH]c(=O)sc45)c3)CC2)C1 [Example 178, (R)-7-(2-(3-fluoro-5-((4-(quinoline-7-carbonyl)-1-oxa-4,9-diazaspiro[5.5]undecan-9-yl)methyl)phenethylamino)-1-hydroxyethyl)-4-hydroxybenzo[d]thiazol-2(3H)-one]
7.94	20	0.9	98	99	Cc1cc(C(=O)N2CCOC3(CCN(CCCCCCCCCNC[C@H](O)c4ccc(O)c5[nH]c(=O)sc45)CC3)C2)c(C)s1 [Example 202, (R)-7-(2-(9-(4-(2,5-dimethylthiophene-3-carbonyl)-1-oxa-4,9-diazaspiro[5.5]undecan-9-yl)nonylamino)-1-hydroxyethyl)-4-hydroxybenzo[d]thiazol-2(3H)-one]
7.94	15.8	0.8	92	95	Cc1nc(CC(=O)N2CCOC3(CCN(CCCCCCCCCNC[C@H](O)c4ccc(O)c5[nH]c(=O)sc45)CC3)C2)cs1 [Example 210, (R)-4-hydroxy-7-(1-hydroxy-2-(9-(4-(2-(2-methylthiazol-4-yl)acetyl)-1-oxa-4,9-diazaspiro[5.5]undecan-9-yl)nonylamino)ethyl)benzo[d]thiazol-2(3H)-one]
